Measurements from patent US11779572B1, “Methods of treating gastrointestinal stromal tumors” (Deciphera Pharmaceuticals, LLC, priority 2022, dated 2023).
In brackets after ≈: the same amount, converted by molar mass. Where two headings read alike, the source gives them in different places.

Columns and labels:
advanced GIST = experiment: Randomized, double-blind, placebo-controlled study of ripretinib in advanced GIST (Example 1): efficacy; assay type: in vivo, human
Method: (§1) Patients were randomized 2:1 to either 150 mg of ripretinib or placebo once daily. The primary efficacy endpoint is progression-free survival (PFS) as determined by independent radiologic review using modified Response Evaluation Criteria in Solid Tumors (RECIST). Secondary endpoints as determined by independent radiologic review using modified RECIST include Objective Response Rate (ORR), Time to Tumor Progression (TTP) and Overall Survival (OS).
Results. This study achieved its primary endpoint of improved PFS as determined by blinded independent central radiologic review using modified Response Evaluation Criteria in Solid Tumors (RECIST) version 1.1.
Patients whose disease progressed during the double blind phase of the study were escalated to 150 mg BID ripretinib, continued at the 150 mg QD dose, or discontinued in an open label-phase of the study.

[1] = tested on: patients with advanced GIST; experiment: Example 1 study: treatment-emergent adverse events, safety; assay type: in vivo, human
Method: as §1
The safety of ripretinib and the impact of alopecia and palmar-plantar erythrodysesthesia (PPES) on patient-reported outcomes (PROs) of patients treated in the study described in Example 1 herein are described. […] When stratified by alopecia and PPES, patient reported assessments of function, overall health, and overall quality of life were maintained over time.

[2] = Food effect (high-fat meal) on exposure; assay type: in vivo, human; conditions: 150 mg dose of ripretinib
Method: The effect of a high-fat breakfast on ripretinib and Compound A exposure was evaluated. A high fat meal consisted of approximately 150, 250, and 500-600 calories from protein, carbohydrate, and fat, respectively. […] The food effect is not considered to be clinically significant based on exposure-response analysis. Therefore, ripretinib may be taken with or without food at approximately same time each day.

[3] = Unbound fraction / plasma protein binding; assay type: in vitro ADME, human; conditions: human, plasma, oral, 50 mg, healthy participants and participants with hepatic impairment; clinical samples; read-out: mean unbound fraction fu %
Description: (§2) Both ripretinib and DP-5439 display high binding to plasma proteins in vitro; therefore, clinical samples were collected to investigate the effect of HI on the unbound fraction (fu) % for both analytes. Distributions of individual mean fu % for both ripretinib and DP-5439 show high variability between participants. The ripretinib mean fu % was ≤0.6% in healthy participants and in participants with hepatic impairment. The DP-5439 fu % was ≤0.5% in healthy participants and 0.2% to 1.4% in participants with hepatic impairment. No clear trend could be established between unbound ripretinib and DP-5439 PK parameters and the degrees of HI.

plasma proteins = experiment: Unbound fraction / plasma protein binding; assay type: in vitro ADME, human
Description: as §2

Solubility in buffers = assay type: physicochemical
CYP2C8 = target: T1, CYP2C8 (Homo sapiens, UniProt P10632); experiment: Contribution of CYP enzymes to metabolism, in vitro data; assay type: in vitro ADME; conditions: base model, based on in vitro data
T1 sequence (P10632 1-490): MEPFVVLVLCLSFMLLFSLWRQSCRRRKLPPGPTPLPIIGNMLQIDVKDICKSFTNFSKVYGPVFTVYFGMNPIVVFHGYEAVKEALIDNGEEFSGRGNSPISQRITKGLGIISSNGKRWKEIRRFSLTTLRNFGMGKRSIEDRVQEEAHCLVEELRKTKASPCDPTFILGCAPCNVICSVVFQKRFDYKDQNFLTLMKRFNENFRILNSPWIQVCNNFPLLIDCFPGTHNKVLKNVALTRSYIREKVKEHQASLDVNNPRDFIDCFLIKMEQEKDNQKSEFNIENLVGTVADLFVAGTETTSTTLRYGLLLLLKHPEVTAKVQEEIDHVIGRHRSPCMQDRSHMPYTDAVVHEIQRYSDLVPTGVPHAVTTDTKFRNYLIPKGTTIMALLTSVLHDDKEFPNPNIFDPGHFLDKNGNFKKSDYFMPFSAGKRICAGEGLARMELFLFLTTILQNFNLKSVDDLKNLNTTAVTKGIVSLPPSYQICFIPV
Description: A PBPK model that included a mechanistic absorption model was developed.

[4] = patients crossed over from placebo to ripretinib

CCn1c(=O)c(-c2cc(NC(=O)Nc3ccccc3)c(F)cc2Br)cc2cnc(NC)cc21 [ripretinib]
benefit over placebo (PFS, OS), primary Exon 11 and Exon 9 mutation (advanced GIST; 150 mg QD, FIG. 17): derive a benefit
OS rate at 12 months (advanced GIST; 150 mg once daily): 65.4%
PFS rate at 6 months (advanced GIST; 150 mg once daily): 51%
reduction of risk of disease progression or death compared to placebo (advanced GIST; 150 mg once daily): 85%
median PFS (advanced GIST; 150 mg once daily, initial ripretinib arm): 27.6 weeks
median PFS (advanced GIST; 150 mg once daily, BICR, modified RECIST 1.1, double-blind cut): 6.3 months
median PFS (advanced GIST; 150 mg once daily, BICR, modified RECIST 1.1, double-blind cut, listed as Ripretinib): 6.3 (4.6, 6.9) months
PFS compared to placebo in subgroups with Exon 9, 11, 13 or 17 KIT mutations (advanced GIST; FIG. 26A-D): PFS benefit in all assessed patient subgroups
Overall survival: number of deaths (%) (advanced GIST; double-blind cut): 26 (31)
PFS by BICR: deaths, number (%) (advanced GIST; double-blind cut): 5 (6)
PFS by BICR: number of events (%) (advanced GIST; double-blind cut): 51 (60)
PFS by BICR: progressive disease, number (%) (advanced GIST; double-blind cut): 46 (54)
objective/overall response rate by BICR (advanced GIST; modified RECIST 1.1, double-blind cut): 9.4%
objective/overall response rate by BICR (advanced GIST; modified RECIST 1.1, double-blind cut, listed as Ripretinib): 9%
Median OS (95% CI) (advanced GIST; open-label cut): Not Reached
Median PFS (95% CI) (advanced GIST; open-label cut): 6.3 (4.6, 8.1) months
Overall Response Rate by BICR (advanced GIST; open-label cut): 12%
Overall survival: number of deaths (%) (advanced GIST; open-label cut): 38 (45)
PFS by BICR: deaths, number (%) (advanced GIST; open-label cut): 6 (7)
PFS by BICR: number of events (%) (advanced GIST; open-label cut): 64 (75)
PFS by BICR: progressive disease, number (%) (advanced GIST; open-label cut): 58 (68)
median OS (advanced GIST; [4]): 11.6 months
median PFS (advanced GIST; [4]): 20.0 weeks
median OS (advanced GIST; patients initially randomized to ripretinib, double-blind cut): 15.1 months
median OS (advanced GIST; patients initially randomized to ripretinib, double-blind cut, listed as Ripretinib): 15 (12, 15) months
alopecia in females ([1]; female, human, in vivo): 56.8%
Grade 3 or 4 TEAE abdominal pain ([1]; human, in vivo): 7%
Grade 3 or 4 TEAE hypertension ([1]; human, in vivo): 7%
TEAE alopecia (most common TEAE) ([1]; human, in vivo): 51.8%
patients reporting PPES ([1]; human, in vivo): 21.2%
patients with Grade 3 or 4 TEAEs ([1]; human, in vivo): 42 (49%)
patients with a TEAE leading to dose interruption ([1]; human, in vivo): 23.5%
patients with a TEAE leading to dose reduction ([1]; human, in vivo): 7.1%
TEAEs during the crossover period ([1]; in vivo): no safety concerns
patients with grade 3 PPES ([1]; in vivo): no patients
serious adverse events of alopecia or PPES ([1]; in vivo): no serious adverse events
alopecia in males ([1]; male, human, in vivo): 43.2%
patients with a TEAE leading to death ([1]; ripretinib arm): 5.9%
AUC0-24h higher with a high-fat meal [2]: 30%
Cmax higher with a high-fat meal [2]: 22%
fraction unbound [3]: ≤ 0.006
binding to plasma proteins (plasma proteins; in vitro): high binding
impact of HI (albumin, ALP, ALT, AST, bilirubin changes) on unbound exposure (plasma proteins; visual assessment): did not appear to have an impact
solubility (Solubility in buffers): pH-dependent solubility
solubility (Solubility in buffers; fassgf or other biorelevant, intestinal buffer (pH 6.5), read-out: solubility): 123 µg/mL (≈ 241 µM)
solubility (Solubility in buffers; simulated gastric fluid, gastric buffer (pH 2.0), read-out: solubility): 178 µg/mL (≈ 349 µM)
share of metabolism assigned to CYP2C8 (CYP2C8): 23%
